# Laboratory results as given in article PMC11892739, “Site-specific molecular glues for the 14-3-3/Tau pS214 protein–protein interaction via reversible covalent imine tethering” (RSC Medicinal Chemistry, 2025).
# Target: T1, 14-3-3ζ/Tau pS2 peptide interaction (Homo sapiens, UniProt P63104)
# T1 construct: made in house; host or cells: NiCo21 (DE3) E. coli
# T1 sequence (P63104 1-245): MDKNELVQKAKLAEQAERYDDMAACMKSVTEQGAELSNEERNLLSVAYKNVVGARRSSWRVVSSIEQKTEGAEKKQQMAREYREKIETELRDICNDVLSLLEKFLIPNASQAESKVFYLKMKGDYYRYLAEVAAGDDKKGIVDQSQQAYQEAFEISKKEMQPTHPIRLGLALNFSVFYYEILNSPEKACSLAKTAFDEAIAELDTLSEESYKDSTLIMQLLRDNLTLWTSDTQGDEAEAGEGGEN
# Assay: Fluorescence anisotropy 14-3-3ζ titration in the presence of 250 μM compound and Tau pS2 peptide
# Format: binding
# Conditions: 250 μM compound; apparent KD compared to internal DMSO reference
# Description: On the other hand, the PPI stabilizing potency of series 1 compounds was highly dependent on the position and chemical property of the substituent. […] The compound screen for these compounds was further complemented by 14-3-3ζ titration assays in the presence of a constant concentration of compound (250 μM) and Tau pS2 peptide (10 nM) (Fig. 3c, ESI ^† Fig. S6).
# This statement is strengthened by the diminished stabilizing activity when shifting the more polar chloro substituent from the para (14) to the ortho (5) to the meta position (8), respectively. […]
# chromatography (HisTrap high performance cartridges, Cytiva). Typically two 5 mL columns were used for a 2 L culture in which the lysate was loaded on the column, washed with 10 CV wash buffer (50 mM Hepes, pH 8.0, 300 mM NaCl, 25 mM imidazole, 2 mM βME), and eluted with several fractions (2-4 CV) of elution buffer (50 mM Hepes, pH 8.0, 300 mM NaCl, 250 mM imidazole, 2 mM βME). Fractions containing the 14-3-3 protein were combined and dialyzed into 25 mM HEPES pH 8.0, 200 mM NaCl, 10 mM MgCl2, 2 mM βME, followed by dialysis into 25 mM HEPES, 100 mM NaCl, 10 mM MgCl2, 500 μM TCEP (adjusted to pH 8.0). Dialyzed protein was concentrated to ∼40 mg/mL, analyzed by Q -Tof LC/MS, and aliquots were flash -frozen for storage at −80 °C. For 14 -3-3σ∆c, 1 mg TEV per 100 mg purified protein was added to the dialysis to remove the purification tag. The cleaved sample was then again loaded on a 10 mL Ni-NTA column to separate the cleaved product from the expression tag and residual uncleaved protein. The flowthrough was loade d on a Superdex 75 pg 16/60 size exclusion column (GE Life Sciences) using 25 mM HEPES, 100 mM NaCl, 10 mM MgCl2, 500 μM TCEP (adjusted to pH = 8.0) as running buffer. Fractions containing the 14 -3-3 protein were pooled and concentrated to ∼60 mg/mL, analyzed Q -Tof LC/MS, and aliquots were flash -frozen for storage at −80°C.
# Fluorescence Anisotropy – compound titration
# Compound titration assays were performed by titrating compounds (in 1% DMSO, starting at 500 μM) in a 2-fold dilution series to preformed complex of fluorescein -labeled Tau pS2 (10 nM) and 14 -3-3ζ (100 nM) (which represents approximately 20% bound Tau pS2 peptide to 14 -3-3ζ to allow further complex formation by addition of fragments 1) in FA buffer (10 mM HEPES pH 7.4, 150 mM NaCl, 50 µM TCEP, 0.1% (v/v) Tween20, 0.1% (w/v) BSA). Dilution series were made in polystyrene low -volume 384 -well plates (Corning #4514, Black Round Bottom). Measurements were performed directly after plate preparation, using a Tecan SPARK plate reader at room temperature ( λex: 485±20 nm; λem: 535±25 nm; mirror: automatic; flashes: 30; settle time: 1 ms; gain: optimal; Z -position: calculated from well). Wells containing only fluorescein labelled peptide were used to set as G -factor calibrated from these wells. All data were analyzed using GraphPad Prism (10.0.1) and fitted with a four -parameter logistic model (4PL) to determine binding affinities (dissociation constant, KD). All data shown is background corrected for the signal without 14 -3-3ζ and the mean and standard deviation of technical duplicate is plotted, assay performed in a scientific duplicate for hit compounds.
# Fluorescence Anisotropy – 14-3-3 titrations in the presence of compound To characterize the affinity of the Tau peptides for 14-3-3 in the presence of compound, 14-3-3ζ or γ was titrated in a 2-fold dilution series starting at 400 (for the 14-3-3ζ titrations to Tau pS2) or 800 (for the 14-3-3γ titrations to Tau pS214 or pS324) µM. 14-3-3 was added to 10 nM of fluorescein-labeled peptide (Tau pS2, Tau pS214 or Tau pS324) in the presence of 250 µM compound (1% DMSO). The assays were performed in a similar way as described above. Data shown is the average and standard deviation of a technical duplicate, top plateau corrected where needed, assay performed in a scientific duplicate.
# Fluorescence Anisotropy – peptide screen […]
row,SMILES,SF250μM (stabilization factor)
1,CCc1ccc(-c2nccn2-c2ccc(C=O)c(Br)c2)cc1 [Compound 18],37
2,O=Cc1ccc(-n2ccnc2-c2ccccc2)cc1Br [Compound 1],23
3,Cc1cccc(-c2nccn2-c2ccc(C=O)c(Br)c2)c1 [Compound 6],10
4,O=Cc1ccc(-n2ccnc2-c2ccc(Cl)cc2)cc1Br [Compound 14],8.9
5,O=Cc1ccc(-n2ccnc2-c2ccc(OC(F)(F)F)cc2)cc1Br [Compound 21],11
6,O=Cc1ccc(-n2ccnc2-c2ccc(I)cc2)cc1Br [Compound 15],3.1
7,Cc1ccc(-c2nccn2-c2ccc(C=O)c(Br)c2)cc1 [Compound 11],29
8,O=Cc1ccc(-n2ccnc2-c2ccc(F)cc2)cc1Br [Compound 13],33
9,O=Cc1ccc(-n2ccnc2-c2ccc(C(F)(F)F)cc2)cc1Br [Compound 20],13
10,N#Cc1ccc(-c2nccn2-c2ccc(C=O)c(Br)c2)cc1 [Compound 22],34

# Same assay, conditions: screening hits
row,SMILES,stabilization of the 14-3-3ζ/Tau pS2 peptide complex [fold]
1,O=Cc1ccc(-n2ccnc2-c2ccccc2)cc1Br [Compound 1],23
